{"source": "patent US9675591B2", "about": "“Methods for treating seizure disorders and pain” (THE REGENTS OF THE UNIVERSITY OF CALIFORNIA, priority 2013, dated 2017)", "key": {"[1]": {"assay": "Acute toxicity, neurological status of rats (positional sense, muscle tone, gait and stance)", "assay_type": "in vivo", "conditions": "Sprague-Dawley, rat, in vivo, rats", "experimental": "(§1) Abnormal neurological status in rats was evaluated by the positional sense test, the muscle tone test, and the gait and stance test. Inability of the rat to perform normally in at least two of these tests is taken as an indication of some neurological deficit."}, "rats": {"test_system": "rats", "assay": "Acute toxicity, neurological status of rats (positional sense, muscle tone, gait and stance)", "assay_type": "in vivo", "experimental": "as §1"}, "Nav1.1": {"target": "Nav1.1 (Homo sapiens (Human), UniProt P35498)", "assay": "Voltage-clamp, Nav1.1 in HEK-293 cells", "assay_type": "cell-based", "conditions": "holding potential -90 mV, 0.1 Hz; read-out: EC50 or IC50, Nav1.1", "experimental": "(§2) All experiments were conducted at room temperature (22-24° C.) with an EPC-10 amplifier and Pulse software (HEKA, Lambrecht/Pfalz, Germany) in the whole-cell mode of the patch-clamp technique. Human embryonic kidney (HEK)-293 cell lines stably expressing hNav1.1, hNav1.5, hNav1.7 channels (generously provided by Dr. Christopher Lossin, University of California Davis), hNav1.4 (Frank Lehmann-Horn, University of Ulm), or hKv2.1 channels (James Trimmer, University of California Davis) were bathed in extracellular solution containing (in mM): 160 NaCl; 4.5 KCl; 1 MgCl2; 2 CaCl2; 10 HEPES [pH was adjusted to 7.4 using NaOH (310 mOsm)]. Pipettes were filled with intracellular solution containing (in mM): 145 KF; 2 MgCl2; 10 ethylene glycol tetraacetic acid; 10 HEPES (pH adjusted to 7.2 with KOH; 300 mOsm). Neuroblastoma N1E-115 cells (ATCC, Manassa, Va., USA) expressing Nav1.2 were patched with a CsF internal solution consisting of (in mM): 10 NaF; 110 CsF; 20 CsCl; 2 ethylene glycol tetraacetic acid; 10 HEPES (CsOH to pH 7.35; 300 mOsm). All pipette tip resistances were 2-4 MΩ. Series resistances of 3-10 MΩ were compensated 40-80%. All cells were voltage-clamped to a holding potential of −90 mV unless otherwise specified. The sampling frequency was 5 kHz. Na^+ currents were elicited by 30-ms pulse to 0 mV from −90 mV applied every 10 s. […]"}, "[2]": {"test_system": "pentylenetetrazole-induced seizures", "assay": "Subcutaneous Metrazol seizure test (scMET)", "assay_type": "in vivo", "experimental": "A dose of subcutaneous pentylenetetrazole (Metrazole, MET) which induces convulsions in 97% of animals (CD97: 85 mg/kg mice or 56.4 mg/kg rats) was injected into a loose fold of skin at the neck. Animals were placed in isolation cages and observed for 30 min for the occurrence of clonic spasms persisting for at least 5 s."}, "MES-induced seizures": {"test_system": "MES-induced seizures", "assay": "Maximal electroshock (MES) seizure test, rats (ASP, methylcellulose suspension)", "assay_type": "in vivo", "conditions": "for ED50: Rattus norvegicus, read-out: ED50, seizure protection in the MES test", "experimental": "SKA-19 was tested under the auspices of the National Institutes of Health's Anticonvulsant Screening Program (ASP). Experiments were performed in male albino CF (Carworth Farms) No. 1 mice or Sprague-Dawley rats according to the established protocols of the ASP (White et al., 2002). SKA-19 was suspended in 0.5% methylcellulose and administered in a volume that permits accuracy of dosage without excessively contributing to total body fluid (0.01 ml/g body weight for mice and 0.04 ml/10 g body weight for rats).\nAnimals received an electrical stimulus of 0.2 s duration (50 mA in mice and 150 mA in rat at 60 Hz) delivered via corneal electrodes primed with an electrolyte solution containing 0.5% tetracaine. Animals were restrained by hand and released immediately after stimulation to permit observation of the seizure throughout its entire course. In the initial screens to identify anticonvulsant activity mice were tested at 30 minutes and 4 hours following doses of 3, 10, 30, 100 and 300 mg/kg of SKA-19 and rats tested at time intervals between 0.25 and 4 hours following a standard oral dose of 30 mg/kg. In the subsequent, more quantitative tests at least four doses of SKA-19 (n=8 per dose) were tested at the previously determined time of peak effect (TPE). Abolition of hindlimb tonic extension indicates the test compound's ability to inhibit MES-induced seizure spread. Tonic extension is considered abolished if the hind limbs are not fully extended at 180° with the body."}, "Nav1.2": {"target": "Nav1.2 (Mus musculus (Mouse), UniProt B1AWN6)", "sequence (B1AWN6 whole entry)": "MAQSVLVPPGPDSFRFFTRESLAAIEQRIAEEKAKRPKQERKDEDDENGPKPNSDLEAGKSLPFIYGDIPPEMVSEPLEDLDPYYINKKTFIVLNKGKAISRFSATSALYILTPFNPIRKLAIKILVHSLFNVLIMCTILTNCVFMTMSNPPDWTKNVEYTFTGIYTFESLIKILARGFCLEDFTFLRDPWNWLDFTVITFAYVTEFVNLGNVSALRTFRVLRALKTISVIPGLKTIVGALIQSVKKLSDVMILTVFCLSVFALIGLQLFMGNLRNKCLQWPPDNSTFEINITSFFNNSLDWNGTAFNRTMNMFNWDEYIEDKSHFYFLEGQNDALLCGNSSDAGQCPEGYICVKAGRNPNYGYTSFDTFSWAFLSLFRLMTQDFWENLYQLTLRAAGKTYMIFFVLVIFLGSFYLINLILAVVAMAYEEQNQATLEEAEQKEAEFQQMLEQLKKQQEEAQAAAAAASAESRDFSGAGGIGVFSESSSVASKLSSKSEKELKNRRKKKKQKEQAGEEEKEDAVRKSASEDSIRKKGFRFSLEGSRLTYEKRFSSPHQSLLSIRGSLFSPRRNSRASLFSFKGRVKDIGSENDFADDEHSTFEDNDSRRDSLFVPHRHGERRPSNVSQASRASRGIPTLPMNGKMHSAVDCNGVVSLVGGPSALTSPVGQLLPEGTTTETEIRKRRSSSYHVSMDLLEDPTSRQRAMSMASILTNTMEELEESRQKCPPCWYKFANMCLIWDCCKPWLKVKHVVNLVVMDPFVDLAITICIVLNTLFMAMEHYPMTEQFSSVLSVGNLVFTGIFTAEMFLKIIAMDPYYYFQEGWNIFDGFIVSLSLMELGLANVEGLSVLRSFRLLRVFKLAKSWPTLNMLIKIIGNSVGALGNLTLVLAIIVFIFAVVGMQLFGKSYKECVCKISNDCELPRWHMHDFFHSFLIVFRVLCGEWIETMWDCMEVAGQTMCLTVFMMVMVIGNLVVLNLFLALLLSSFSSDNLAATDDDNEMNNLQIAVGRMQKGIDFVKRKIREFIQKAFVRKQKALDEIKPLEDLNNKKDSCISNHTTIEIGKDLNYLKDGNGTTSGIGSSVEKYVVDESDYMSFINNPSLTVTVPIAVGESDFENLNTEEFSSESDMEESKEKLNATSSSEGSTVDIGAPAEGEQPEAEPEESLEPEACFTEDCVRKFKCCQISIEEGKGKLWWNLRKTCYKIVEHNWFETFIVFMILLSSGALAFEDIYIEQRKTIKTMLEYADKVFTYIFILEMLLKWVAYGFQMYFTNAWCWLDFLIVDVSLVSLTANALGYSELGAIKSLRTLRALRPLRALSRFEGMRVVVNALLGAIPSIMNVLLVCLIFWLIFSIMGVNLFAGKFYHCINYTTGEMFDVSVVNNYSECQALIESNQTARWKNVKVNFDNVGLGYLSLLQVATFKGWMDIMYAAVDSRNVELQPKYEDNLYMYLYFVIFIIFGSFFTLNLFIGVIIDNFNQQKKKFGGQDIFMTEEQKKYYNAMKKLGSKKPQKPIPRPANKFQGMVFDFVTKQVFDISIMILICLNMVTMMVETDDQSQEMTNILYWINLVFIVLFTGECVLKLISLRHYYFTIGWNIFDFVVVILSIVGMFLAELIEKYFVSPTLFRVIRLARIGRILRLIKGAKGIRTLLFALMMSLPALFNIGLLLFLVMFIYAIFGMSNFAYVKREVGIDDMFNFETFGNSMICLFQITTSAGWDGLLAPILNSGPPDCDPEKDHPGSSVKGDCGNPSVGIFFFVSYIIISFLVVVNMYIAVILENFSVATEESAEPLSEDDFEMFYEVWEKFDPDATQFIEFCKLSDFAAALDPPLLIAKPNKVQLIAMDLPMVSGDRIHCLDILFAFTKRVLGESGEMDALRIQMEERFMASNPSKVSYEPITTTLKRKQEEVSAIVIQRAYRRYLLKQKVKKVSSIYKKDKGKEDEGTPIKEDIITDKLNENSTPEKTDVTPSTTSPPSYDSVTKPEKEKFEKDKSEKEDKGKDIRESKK", "assay": "Voltage-clamp, Nav1.2 currents in N1E-115 neuroblastoma cells", "assay_type": "cell-based", "experimental": "All experiments were conducted at room temperature (22-24° C.) with an EPC-10 amplifier and Pulse software (HEKA, Lambrecht/Pfalz, Germany) in the whole-cell mode of the patch-clamp technique. Human embryonic kidney (HEK)-293 cell lines stably expressing hNav1.1, hNav1.5, hNav1.7 channels (generously provided by Dr. Christopher Lossin, University of California Davis), hNav1.4 (Frank Lehmann-Horn, University of Ulm), or hKv2.1 channels (James Trimmer, University of California Davis) were bathed in extracellular solution containing (in mM): 160 NaCl; 4.5 KCl; 1 MgCl2; 2 CaCl2; 10 HEPES [pH was adjusted to 7.4 using NaOH (310 mOsm)]. Pipettes were filled with intracellular solution containing (in mM): 145 KF; 2 MgCl2; 10 ethylene glycol tetraacetic acid; 10 HEPES (pH adjusted to 7.2 with KOH; 300 mOsm). Neuroblastoma N1E-115 cells (ATCC, Manassa, Va., USA) expressing Nav1.2 were patched with a CsF internal solution consisting of (in mM): 10 NaF; 110 CsF; 20 CsCl; 2 ethylene glycol tetraacetic acid; 10 HEPES (CsOH to pH 7.35; 300 mOsm). All pipette tip resistances were 2-4 MΩ. Series resistances of 3-10 MΩ were compensated 40-80%. All cells were voltage-clamped to a holding potential of −90 mV unless otherwise specified. The sampling frequency was 5 kHz. Na^+ currents were elicited by 30-ms pulse to 0 mV from −90 mV applied every 10 s. Kv2.1 currents were elicited by 200-ms voltage steps from −90 to 40 mV applied every 10 s."}, "[3]": {"test_system": "lamotrigine resistant amygdala kindled rats", "assay": "Lamotrigine resistant amygdala kindled rats", "assay_type": "in vivo"}, "Nav1.5": {"target": "Nav1.5 (Homo sapiens (Human), UniProt Q14524)", "sequence (Q14524 whole entry)": "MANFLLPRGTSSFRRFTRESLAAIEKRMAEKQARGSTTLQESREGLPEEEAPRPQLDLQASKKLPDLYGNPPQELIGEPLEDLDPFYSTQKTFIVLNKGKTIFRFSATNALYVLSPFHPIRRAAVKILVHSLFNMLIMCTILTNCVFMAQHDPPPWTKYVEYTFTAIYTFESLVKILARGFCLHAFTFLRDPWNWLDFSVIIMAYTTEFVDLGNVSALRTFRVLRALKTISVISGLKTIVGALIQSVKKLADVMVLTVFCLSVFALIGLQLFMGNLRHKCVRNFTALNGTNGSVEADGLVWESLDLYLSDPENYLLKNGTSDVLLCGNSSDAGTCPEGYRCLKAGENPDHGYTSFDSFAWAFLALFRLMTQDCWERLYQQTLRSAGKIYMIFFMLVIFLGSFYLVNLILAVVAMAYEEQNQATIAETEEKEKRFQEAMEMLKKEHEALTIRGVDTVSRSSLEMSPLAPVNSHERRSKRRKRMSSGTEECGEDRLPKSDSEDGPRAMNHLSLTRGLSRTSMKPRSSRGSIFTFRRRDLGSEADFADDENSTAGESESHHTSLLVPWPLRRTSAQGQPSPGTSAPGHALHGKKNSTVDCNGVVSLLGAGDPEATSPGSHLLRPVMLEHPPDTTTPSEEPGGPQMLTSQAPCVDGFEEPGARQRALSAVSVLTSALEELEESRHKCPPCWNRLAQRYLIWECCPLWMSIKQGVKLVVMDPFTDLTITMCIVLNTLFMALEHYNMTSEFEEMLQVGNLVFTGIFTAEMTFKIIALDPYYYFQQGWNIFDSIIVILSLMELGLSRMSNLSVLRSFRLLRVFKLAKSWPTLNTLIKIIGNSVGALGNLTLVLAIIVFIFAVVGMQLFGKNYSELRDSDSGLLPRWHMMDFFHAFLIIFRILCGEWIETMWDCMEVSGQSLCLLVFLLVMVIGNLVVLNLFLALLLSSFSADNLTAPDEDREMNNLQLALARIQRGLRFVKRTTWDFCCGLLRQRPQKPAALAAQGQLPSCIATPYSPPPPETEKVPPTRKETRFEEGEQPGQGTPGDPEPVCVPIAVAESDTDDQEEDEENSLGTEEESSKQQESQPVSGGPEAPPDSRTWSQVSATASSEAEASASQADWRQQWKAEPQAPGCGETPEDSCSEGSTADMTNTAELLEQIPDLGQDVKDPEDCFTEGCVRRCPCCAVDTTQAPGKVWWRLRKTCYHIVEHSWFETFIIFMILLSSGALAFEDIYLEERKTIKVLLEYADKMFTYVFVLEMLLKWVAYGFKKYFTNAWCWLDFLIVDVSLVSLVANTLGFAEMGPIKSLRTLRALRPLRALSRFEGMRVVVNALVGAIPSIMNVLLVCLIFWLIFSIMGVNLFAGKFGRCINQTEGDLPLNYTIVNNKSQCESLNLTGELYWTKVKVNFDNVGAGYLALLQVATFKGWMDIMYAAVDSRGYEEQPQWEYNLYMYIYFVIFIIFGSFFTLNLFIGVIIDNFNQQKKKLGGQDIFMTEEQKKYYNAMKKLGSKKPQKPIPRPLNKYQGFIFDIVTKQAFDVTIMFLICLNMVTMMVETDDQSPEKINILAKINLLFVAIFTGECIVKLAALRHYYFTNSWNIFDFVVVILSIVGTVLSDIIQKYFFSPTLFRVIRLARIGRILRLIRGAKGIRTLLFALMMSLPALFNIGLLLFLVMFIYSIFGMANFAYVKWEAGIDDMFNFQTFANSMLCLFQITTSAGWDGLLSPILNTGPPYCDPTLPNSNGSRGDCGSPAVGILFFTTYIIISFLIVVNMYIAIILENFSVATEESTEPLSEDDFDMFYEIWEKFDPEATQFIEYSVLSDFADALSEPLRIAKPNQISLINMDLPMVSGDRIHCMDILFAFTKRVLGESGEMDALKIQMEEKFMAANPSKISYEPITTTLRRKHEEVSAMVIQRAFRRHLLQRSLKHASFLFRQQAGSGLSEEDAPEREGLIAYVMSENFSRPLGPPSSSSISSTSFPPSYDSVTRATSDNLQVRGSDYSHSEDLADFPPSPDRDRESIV", "assay": "Voltage-clamp, Nav1.5 in HEK-293 cells", "assay_type": "cell-based", "experimental": "as §2"}, "sound-induced seizures": {"test_system": "sound-induced seizures", "assay": "Frings audiogenic seizure (AGS)-susceptible mouse model", "assay_type": "in vivo, mice", "conditions": "ip, 2 h, read-out: ED50, protection from sound induced seizures", "experimental": "Frings audiogenic seizure (AGS)-susceptible mice are genetically susceptible to sound-induced seizures (Frings et al., 1953). A colony of AGS mice is maintained by the ASP at the University of Utah. Groups of 8 female mice (weighing 18-25 g) were treated i.p. with increasing doses of SKA-19. At the TPE in the MES test, mice were exposed to a sound stimulus of 110 decibels (11 KHz) delivered for 20 s."}}, "note": "Values joined by “and” are separate entries in the source; they are usually repeats but may differ in a detail not shown here. Equal entries are not always repeated. Where two headings read alike, the source gives them in different places."}
{"smiles": "Nc1nc2ccc(SC(F)(F)F)cc2s1", "note": "[SKA-19, 6-((trifluoromethyl)thio)benzo[d]thiazol-2-amine]", "values": [{"measurement": "TD50", "setting": "[1]; ip", "value": 14.3, "unit": "mg/kg"}, {"measurement": "TD50 at 1 h", "setting": "[1]; ip", "value": 14.3, "unit": "mg/kg"}, {"measurement": "TD50 at 4 h", "setting": "[1]; oral", "value": 77.4, "unit": "mg/kg"}, {"measurement": "deaths", "setting": "rats; rat, in vivo", "value": "No deaths"}, {"measurement": "neurotoxicity", "setting": "rats; rats, oral 30 mg/kg, 0.25-4 h", "value": "without inducing neurotoxicity"}, {"measurement": "IC50", "setting": "Nav1.1", "value": "6.9 ± 4.9", "unit": "µM"}, {"measurement": "death in the scMET test", "setting": "[2]; 300 mg/kg", "value": "one animal treated with 300 mg/kg died"}, {"measurement": "protection in the scMET test", "setting": "[2]; 30 and 100 mg/kg", "value": "did not provide any protection"}, {"measurement": "activity in the scMET test", "setting": "[2]; mouse, in vivo", "value": "no significant activity"}, {"measurement": "ED50", "setting": "MES-induced seizures; ip, 1 h time point", "value": 1.6, "unit": "mg/kg"}, {"measurement": "ED50", "setting": "MES-induced seizures; oral (SKA-19: 4 h time point)", "value": 2.33, "unit": "mg/kg"}, {"measurement": "protective index PI (TD50/ED50)", "setting": "MES-induced seizures; i.p.", "value": 8.9}, {"measurement": "protective index PI (TD50/ED50)", "setting": "MES-induced seizures; oral", "value": "~33 and 33.2"}, {"measurement": "protection from MES induced seizures, initial screen", "setting": "MES-induced seizures; oral 30 mg/kg, 0.25, 0.5, 1, 2 and 4 h", "value": "fully protected"}, {"measurement": "IC50", "setting": "Nav1.2; 20 Hz, read-out: IC50, Nav1.2", "value": "0.52 ± 0.23", "unit": "µM"}, {"measurement": "IC50", "setting": "Nav1.2; -70 mV holding potential, read-out: IC50, Nav1.2", "value": "0.86 ± 0.7", "unit": "µM"}, {"measurement": "IC50", "setting": "Nav1.2; -120 mV holding potential, read-out: IC50, Nav1.2", "value": "9.5 ± 1.72", "unit": "µM"}, {"measurement": "IC50", "setting": "Nav1.2; changed holding potential, read-out: IC50, Nav1.2", "value": 0.86, "unit": "µM"}, {"measurement": "IC50", "setting": "Nav1.2; holding potential -90 mV, 0.1 Hz, read-out: EC50 or IC50, Nav1.2", "value": "~7.9 µM and 7.9 µM"}, {"measurement": "IC50", "setting": "Nav1.2; pulse frequency 20 Hz, read-out: IC50, Nav1.2", "value": 0.52, "unit": "µM"}, {"measurement": "rats protected", "setting": "[3]; 6 mg/kg", "value": "2 out of 8"}, {"measurement": "rats protected", "setting": "[3]; 50 mg/kg", "value": "3 out of 7"}, {"measurement": "block of Nav1.5", "setting": "Nav1.5", "value": "low micromolar range"}, {"measurement": "IC50", "setting": "Nav1.5; read-out: EC50 or IC50, Nav1.5", "value": "5.8 ± 2.6", "unit": "µM"}, {"measurement": "ED50", "setting": "sound-induced seizures", "value": 2.15, "unit": "mg/kg"}]}
